Test results taken from ChEMBL document CHEMBL3046180, “Antifungal activity of some diaryl ethers” (2007).
Calls of active or inactive are those of the source. The calls are words filed in the database; no cut-off is given here.

How the values were obtained:
Bipolaris sorokiniana [1] = test: Growth inhibition of Bipolaris sorokiniana at 50 ug/ml after 4 days by poisoned food technique; assay type: functional; settings: 96 h, read-out: GI
Bipolaris sorokiniana [2] = test: Growth inhibition of Bipolaris sorokiniana at 500 ug/ml after 4 days by poisoned food technique; assay type: functional; settings: 96 h, read-out: GI
Alternaria brassicae [3] = test: Growth inhibition of Alternaria brassicae at 50 ug/ml after 4 days by poisoned food technique; assay type: functional; settings: 96 h, read-out: GI
Alternaria brassicae [4] = test: Growth inhibition of Alternaria brassicae at 500 ug/ml after 4 days by poisoned food technique; assay type: functional; settings: 96 h, read-out: GI
[5] = test system: Fusarium oxysporum f. sp. cucumerinum; test: Growth inhibition of Fusarium oxysporum f. sp. cucumerinum at 50 ug/ml after 4 days by poisoned food technique; assay type: functional; settings: 96 h, read-out: GI
[6] = test system: Fusarium oxysporum f. sp. cucumerinum; test: Growth inhibition of Fusarium oxysporum f. sp. cucumerinum at 500 ug/ml after 4 days by poisoned food technique; assay type: functional; settings: 96 h, read-out: GI
[7] = test system: Fusarium oxysporum f. sp. vasinfectum; test: Growth inhibition of Fusarium oxysporum f. sp. vasinfectum at 50 ug/ml after 4 days by poisoned food technique; assay type: functional; settings: 96 h, read-out: GI
[8] = test system: Fusarium oxysporum f. sp. vasinfectum; test: Growth inhibition of Fusarium oxysporum f. sp. vasinfectum at 500 ug/ml after 4 days by poisoned food technique; assay type: functional; settings: 96 h, read-out: GI
Pyricularia oryzae [9] = test: Growth inhibition of Magnaporthe oryzae at 50 ug/ml after 4 days by poisoned food technique; assay type: functional; settings: 96 h, read-out: GI
Pyricularia oryzae [10] = test: Growth inhibition of Magnaporthe oryzae at 500 ug/ml after 4 days by poisoned food technique; assay type: functional; settings: 96 h, read-out: GI
Alternaria alternata [11] = test: Growth inhibition of Alternaria alternata at 50 ug/ml after 4 days by poisoned food technique; assay type: functional; settings: 96 h, read-out: GI
Fusarium graminearum [12] = test: Growth inhibition of Fusarium graminearum at 500 ug/ml after 4 days by poisoned food technique; assay type: functional; settings: 96 h, read-out: GI
Alternaria alternata [13] = test: Growth inhibition of Alternaria alternata at 500 ug/ml after 4 days by poisoned food technique; assay type: functional; settings: 96 h, read-out: GI
Fusarium graminearum [14] = test: Growth inhibition of Fusarium graminearum at 50 ug/ml after 4 days by poisoned food technique; assay type: functional; settings: 96 h, read-out: GI
Fusarium graminearum [15] = test: Antifungal activity against Fusarium graminearum assessed as mycelial growth inhibition at 250 to 500 ug/ml after 4 days by poisoned food technique; assay type: functional, organism-based

| Compound | inhibition of growth at 50 µg/mL (Bipolaris sorokiniana [1]) [%] | inhibition of growth at 500 µg/mL (Bipolaris sorokiniana [2]) [%] | inhibition of growth at 50 µg/mL (Alternaria brassicae [3]) [%] | inhibition of growth at 500 µg/mL (Alternaria brassicae [4]) [%] | inhibition of growth at 50 µg/mL [5] [%] | inhibition of growth at 500 µg/mL [6] [%] | inhibition of growth at 50 µg/mL [7] [%] | inhibition of growth at 500 µg/mL [8] [%] | inhibition of growth at 50 µg/mL (Pyricularia oryzae [9]) [%] | inhibition of growth at 500 µg/mL (Pyricularia oryzae [10]) [%] | inhibition of growth at 50 µg/mL (Alternaria alternata [11]) [%] | inhibition of growth at 500 µg/mL (Fusarium graminearum [12]) [%] | inhibition of growth at 500 µg/mL (Alternaria alternata [13]) [%] | inhibition of growth at 50 µg/mL (Fusarium graminearum [14]) [%] | growth inhibition (GI) (Fusarium graminearum [15]) |
| --- | --- | --- | --- | --- | --- | --- | --- | --- | --- | --- | --- | --- | --- | --- | --- |
| CC(C)(C)c1ccc(Oc2ccccc2[N+](=O)[O-])cc1 | 50.3 | 38.7 | 38.4 | 37.4 | 8.4 | 17.3 | 19.3 | 11.2 | 37.9 | 44.8 | 33 | 52.7 | 53.3 | 38.8 | – |
| N#Cc1ccccc1Oc1ccc(Cl)cc1 | 68 | 56.2 | 56.8 | 74.1 | 48.8 | 54.3 | 52.5 | 57 | 59.7 | 77.7 | 55.9 | 83.7 | 78 | 79.6 | – |
| Cc1cc(O)no1 [HYMEXAZOL] | 100 | 37.1 | 89 | 100 | 19.8 | 91.5 | 45.8 | 92.3 | 66.4 | 100 | 82.3 | 99.4 | 100 | 38.7 | – |
| O=[N+]([O-])c1ccccc1Oc1ccccc1Cl | 88.7 | 71.1 | 64.5 | 76.2 | 48 | 53.8 | 59.7 | 58 | 51 | 71.6 | 52.8 | 78.6 | 74 | 65.2 | – |
| O=[N+]([O-])c1ccccc1Oc1ccc(Cl)cc1 | 79.9 | 40.9 | 61 | 74.3 | 44.9 | 50.2 | 40.3 | 47.5 | 48.3 | 69 | 51.8 | 73.6 | 71.7 | 59.7 | – |
| O=[N+]([O-])c1ccccc1Oc1ccccc1 | 95 | 30.2 | 79 | 87.9 | 55.6 | 65.3 | 70.1 | 70.9 | 58 | 92 | 62.2 | 94 | 95.3 | 64.9 | Active |
| O=[N+]([O-])c1ccc(Oc2ccc(Cl)cc2)cc1 | 78.1 | 74.3 | 42.7 | 47.2 | 34.1 | 38 | 41.4 | 43.4 | 47.6 | 63.8 | 47.4 | 66.8 | 61.3 | 63 | – |
